Data taken from US10077261B2, “Imidazolin-5-one derivative useful as FASN inhibitors for the treatment of cancer” (Janssen Pharmaceutica NV, priority 2012, dated 2018).

Legend:
[1] = target: T1, hFASN enzyme (full length) (Homo sapiens, UniProt P49327); test: Fatty Acid Synthase (FASN) inhibition scintillation proximity assay; format: biochemical; conditions: for inhibition at 10 µM: read-out: Human FASN % inhibition @ 10 μM, 10 μM test compound; for IC50: read-out: Human FASN pIC50 (converted)
T1 construct: 10 μL hFASN enzyme (full length, 300 ng, purified in house); made in house
T1 sequence (P49327 whole entry): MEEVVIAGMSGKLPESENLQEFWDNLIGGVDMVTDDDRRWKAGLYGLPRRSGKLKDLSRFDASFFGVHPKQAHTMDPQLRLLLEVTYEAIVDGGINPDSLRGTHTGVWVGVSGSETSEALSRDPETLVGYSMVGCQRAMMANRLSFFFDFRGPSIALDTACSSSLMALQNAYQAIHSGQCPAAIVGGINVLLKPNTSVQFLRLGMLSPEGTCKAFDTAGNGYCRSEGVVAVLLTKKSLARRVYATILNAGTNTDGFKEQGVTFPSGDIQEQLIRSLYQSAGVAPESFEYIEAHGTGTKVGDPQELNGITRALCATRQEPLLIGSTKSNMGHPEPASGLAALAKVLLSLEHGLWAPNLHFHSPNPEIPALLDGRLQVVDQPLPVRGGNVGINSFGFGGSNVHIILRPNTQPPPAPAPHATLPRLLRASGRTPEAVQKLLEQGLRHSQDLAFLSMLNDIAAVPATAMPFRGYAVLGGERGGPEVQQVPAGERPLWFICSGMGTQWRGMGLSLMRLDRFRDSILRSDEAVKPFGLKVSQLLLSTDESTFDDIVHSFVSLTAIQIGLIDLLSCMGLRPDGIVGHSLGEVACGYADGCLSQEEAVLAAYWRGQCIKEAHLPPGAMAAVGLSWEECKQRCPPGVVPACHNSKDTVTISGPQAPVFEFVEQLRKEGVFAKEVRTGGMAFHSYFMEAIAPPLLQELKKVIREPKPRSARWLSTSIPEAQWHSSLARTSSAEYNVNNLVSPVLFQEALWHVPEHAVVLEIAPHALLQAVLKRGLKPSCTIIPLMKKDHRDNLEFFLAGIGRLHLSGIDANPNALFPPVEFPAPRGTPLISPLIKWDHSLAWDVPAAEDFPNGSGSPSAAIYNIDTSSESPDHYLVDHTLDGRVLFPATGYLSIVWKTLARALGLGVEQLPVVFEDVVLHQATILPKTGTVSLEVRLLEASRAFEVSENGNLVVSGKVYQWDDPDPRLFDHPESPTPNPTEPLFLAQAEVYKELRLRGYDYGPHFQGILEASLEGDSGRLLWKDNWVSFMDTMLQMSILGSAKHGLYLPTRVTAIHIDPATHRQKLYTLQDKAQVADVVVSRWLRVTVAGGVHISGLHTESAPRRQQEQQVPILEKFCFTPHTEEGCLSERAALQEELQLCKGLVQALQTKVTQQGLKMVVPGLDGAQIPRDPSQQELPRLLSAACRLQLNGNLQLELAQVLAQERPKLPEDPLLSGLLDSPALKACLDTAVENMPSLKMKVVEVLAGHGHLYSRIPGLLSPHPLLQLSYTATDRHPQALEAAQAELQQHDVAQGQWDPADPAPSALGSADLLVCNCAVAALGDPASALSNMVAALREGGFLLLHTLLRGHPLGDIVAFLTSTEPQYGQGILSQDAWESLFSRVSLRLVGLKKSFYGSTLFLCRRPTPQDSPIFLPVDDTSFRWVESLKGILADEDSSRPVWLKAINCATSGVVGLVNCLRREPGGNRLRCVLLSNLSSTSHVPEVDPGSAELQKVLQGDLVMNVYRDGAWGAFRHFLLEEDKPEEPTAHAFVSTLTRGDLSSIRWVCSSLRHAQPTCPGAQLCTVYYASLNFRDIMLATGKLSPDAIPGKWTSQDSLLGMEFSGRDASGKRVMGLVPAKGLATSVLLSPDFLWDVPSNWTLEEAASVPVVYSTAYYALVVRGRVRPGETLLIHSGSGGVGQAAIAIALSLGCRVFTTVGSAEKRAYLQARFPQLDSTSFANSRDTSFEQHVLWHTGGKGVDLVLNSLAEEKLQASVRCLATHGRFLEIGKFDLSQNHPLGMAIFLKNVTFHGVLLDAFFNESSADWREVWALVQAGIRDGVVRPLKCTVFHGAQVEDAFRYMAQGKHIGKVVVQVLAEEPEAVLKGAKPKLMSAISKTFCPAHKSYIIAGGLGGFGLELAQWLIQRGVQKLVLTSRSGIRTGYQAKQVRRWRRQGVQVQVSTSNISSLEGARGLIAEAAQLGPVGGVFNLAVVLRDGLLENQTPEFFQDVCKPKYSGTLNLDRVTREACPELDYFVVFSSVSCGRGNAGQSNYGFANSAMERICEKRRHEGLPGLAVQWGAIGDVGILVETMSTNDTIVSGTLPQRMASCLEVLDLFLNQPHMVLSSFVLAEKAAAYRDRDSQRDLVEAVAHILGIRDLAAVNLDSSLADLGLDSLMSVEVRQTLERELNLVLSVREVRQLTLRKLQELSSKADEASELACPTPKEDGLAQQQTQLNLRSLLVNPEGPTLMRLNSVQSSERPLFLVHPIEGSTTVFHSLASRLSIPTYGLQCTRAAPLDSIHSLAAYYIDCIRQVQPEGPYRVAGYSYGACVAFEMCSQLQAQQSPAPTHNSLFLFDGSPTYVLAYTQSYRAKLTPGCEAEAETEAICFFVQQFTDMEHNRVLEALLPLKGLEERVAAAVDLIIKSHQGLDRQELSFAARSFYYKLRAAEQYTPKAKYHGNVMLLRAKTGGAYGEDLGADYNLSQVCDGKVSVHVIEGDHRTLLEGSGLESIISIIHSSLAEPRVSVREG
Summary of the method: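 Proximity read-out: hydrophobic ^3H-palmitate formed from ^3H-acetyl-CoA and malonyl-CoA binds streptavidin imaging beads, imaged at 610±20 nm at least 24 h after stopping. Enzyme was in-house purified full-length hFASN, 300 ng, in pH 7.5 phosphate/DTT buffer; compound series 30 μM down to 0.01 μM, normalized to controls, 4-parameter fit.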

[2] = tested on: A2780 ovarian cells; test: A2780 ovarian cell proliferation assay in lipid reduced medium, with palmitate (MTT); format: cell-based; conditions: Homo sapiens, A2780, 96 h; read-out: pIC50 A2780 Ovarian Cell, With Palmitate (converted)
Summary of the method: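 In this palmitate-supplemented format, compound dilutions (30 μM down to 0.01 μM) are added to cells in lipid-reduced serum with 25 μM palmitate, 0.2% fatty-acid-free BSA and 0.25% ethanol. After four days (96 h) MTT absorbance at 544 nm is recorded and fitted by minimum sum of squares.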

[3] = tested on: A2780 ovarian cells; test: A2780 ovarian cell proliferation assay in lipid reduced medium, without palmitate (MTT); format: cell-based; conditions: Homo sapiens, A2780, 96 h; read-out: pIC50 A2780 Ovarian Cell, Without Palmitate (converted)
[4] = tested on: LNCaP-Vancouver prostate cells; test: In vitro LNCaP Vancouver prostate cell proliferation assay in lipid reduced medium; format: cell-based; conditions: read-out: pIC50 LNCaP_Vancouver prostate cell (converted)
[5] = tested on: PC-3M-Luc-C6 prostate cells; test: In vitro PC-3M-Luc-C6 prostate cell proliferation assay in lipid reduced medium; format: cell-based; conditions: 96 h, read-out: pIC50 PC-3M-Luc-C6 prostate cell (converted)
[6] = target: Fatty Acid Synthase Keto-reductase Domain (FASN KR) (Homo sapiens, UniProt P49327); test: Fatty Acid Synthase keto-reductase domain (FASN KR) inhibition, NADPH oxidation at 340 nm
Sequence of Fatty Acid Synthase Keto-reductase Domain (FASN KR) (P49327 whole entry, the tested form may be a part): as the sequence (P49327 whole entry) above
Procedure: After 20 minutes incubation at room temperature the plate was measured again (T2).
The decrease in absorbance was calculated as (Absorbance before incubation T1)−(Absorbance following incubation T2).
A plot of Controlmin versus test compound concentration was fitted to a 4-parameter logistic curve using a non-linear least squares regression method.

Row | inhibition at 10 µM [1] | IC50 [1] | IC50 [2] | IC50 [3] | IC50 [4] | IC50 [5] | IC50 [6] | SMILES
1 | 99% | 380 nM | > 10000 nM | 288 nM | 2140 nM | 676 nM | 676 nM | Cc1ccc2ccc(-c3ccc(C4=NC5(CC5)C(=O)N4CC4CN(C(=O)C5(C)CC5)C4)c(C)c3)cc2n1 [compound 576, 6-({1-[(1-Methylcyclopropyl)carbonyl]azetidin-3-yl}methyl)-5-[2-methyl-4-(2-methylquinolin-7-yl)phenyl]-4,6-diazaspiro[2.4]hept-4-en-7-one]
2 | 83% | 1100 nM | > 10000 nM | 1100 nM | 4570 nM | 2000 nM | 4570 nM | Cc1cc(-c2ccc3ccc(C(N)=O)nc3c2)ccc1C1=NC2(CC2)C(=O)N1CC1CN(C(=O)C2(C)CC2)C1 [compound 579, 7-{3-Methyl-4-[6-({1-[(1-methylcyclopropyl)carbonyl]azetidin-3-yl}methyl)-7-oxo-4,6-diazaspiro[2.4]hept-4-en-5-yl]phenyl}quinoline-2-carboxamide]
3 | 102% | 245 nM | > 10000 nM | 617 nM | 1910 nM | ~589 nM | 1070 nM | Cc1cc(-c2ccc3ccc(Cl)nc3c2)ccc1C1=NC2(CC2)C(=O)N1CC1CN(C(=O)C2(C)CC2)C1 [compound 594, 5-[4-(2-Chloroquinolin-7-yl)-2-methylphenyl]-6-({1-[(1-methylcyclopropyl)carbonyl]azetidin-3-yl}methyl)-4,6-diazaspiro[2.4]hept-4-en-7-one]
4 | 103% | 209 nM | > 10000 nM | 200 nM | 2340 nM | ~355 nM | 309 nM | Cc1cc(-c2cccc3nn(C)cc23)ccc1C1=NC2(CC2)C(=O)N1CC1CN(C(=O)C2(C)CC2)C1 [compound 598, 6-({1-[(1-Methylcyclopropyl)carbonyl]azetidin-3-yl}methyl)-5-[2-methyl-4-(2-methyl-2H-indazol-4-yl)phenyl]-4,6-diazaspiro[2.4]hept-4-en-7-one]
5 | 100% | 186 nM | 3890 nM | 219 nM | 1020 nM | 316 nM | 501 nM | Cc1cc(-c2ccc(-c3ccn(CC4CC4)n3)cc2)ccc1C1=NC2(CC2)C(=O)N1CC1CN(C(=O)C2(C)CC2)C1 [compound 601, 5-{4′-[1-(Cyclopropylmethyl)-1H-pyrazol-3-yl]-3-methylbiphenyl-4-yl}-6-({1-[(1-methylcyclopropyl)carbonyl]azetidin-3-yl}methyl)-4,6-diazaspiro[2.4]hept-4-en-7-one]
6 | 94% | 324 nM | 6170 nM | 380 nM | 1480 nM | 692 nM | 1550 nM | Cc1cc(-c2ccc(-c3ccn(CC(C)C)n3)cc2)ccc1C1=NC2(CC2)C(=O)N1CC1CN(C(=O)C2(C)CC2)C1 [compound 602, 6-({1-[(1-Methylcyclopropyl)carbonyl]azetidin-3-yl}methyl)-5-{3-methyl-4′-[1-(2-methylpropyl)-1H-pyrazol-3-yl]biphenyl-4-yl}-4,6-diazaspiro[2.4]hept-4-en-7-one]
7 | 84% | 1120 nM | ~10000 nM | 2340 nM | > 10000 nM | 4170 nM | 8710 nM | Cc1cc(-c2ccc3ccc(C#N)nc3c2)ccc1C1=NC2(CC2)C(=O)N1CC1CN(C(=O)C2(C)CC2)C1 [compound 604, 7-{3-Methyl-4-[6-({1-[(1-methylcyclopropyl)carbonyl]azetidin-3-yl}methyl)-7-oxo-4,6-diazaspiro[2.4]hept-4-en-5-yl]phenyl}quinoine-2-carbonitrile]

The next lines start with the compound.

Row | SMILES | inhibition at 10 µM [1] | IC50 [1] | IC50 [2] | IC50 [3] | IC50 [4] | IC50 [5] | IC50 [6]
8 | Cn1nccc1-c1ccc(-c2ccc(C3=NC4(CC4)C(=O)N3CC3CN(C(=O)C4(C)CC4)C3)c(F)c2)cc1 [compound 566, 5-[3-Fluoro-4′-(1-methyl-1H-pyrazol-5-yl)biphenyl-4-yl]-6-({1-[(1-methylcyclopropyl)carbonyl]azetidin-3-yl}methyl)-4,6-diazaspiro[2.4]hept-4-en-7-one] | 93% | 380 nM | > 10000 nM | 295 nM | 1550 nM | 575 nM | 776 nM
9 | Cc1cc(-c2cccc(NS(=O)(=O)C3CC3)c2)ccc1C1=NC2(CC2)C(=O)N1CC1CN(C(=O)C2CC2)C1 [compound 578, N-[4′-(6-{[1-(Cyclopropylcarbonyl)azetidin-3-yl]methyl}-7-oxo-4,6-diazaspiro[2.4]hept-4-en-5-yl)-3′-methylbiphenyl-3-yl]cyclopropanesulfonamide] | 92% | 646 nM | > 10000 nM | 331 nM | 5010 nM | 871 nM | 1550 nM
10 | Cc1cc(-c2ccc3c(c2)cc(C)n3C)ccc1C1=NC2(CC2)C(=O)N1CC1CN(C(=O)C2CC2)C1 [compound 582, 6-{[1-(Cyclopropylcarbonyl)azetidin-3-yl]methyl}-5-[4-(1,2-dimethyl-1H-indol-5-yl)-2-methylphenyl]-4,6-diazaspiro[2.4]hept-4-en-7-one] | 103% | 324 nM | > 10000 nM | ~631 nM | 3240 nM | 794 nM | 1200 nM
11 | Cn1ncc2cc(-c3ccc(C4=NC5(CC5)C(=O)N4CC4CN(C(=O)C5CC5)C4)c(Cl)c3)ccc21 [compound 584, 5-[2-Chloro-4-(1-methyl-1H-indazol-5-yl)phenyl]-6-{[1-(cyclopropylcarbonyl)azetidin-3-yl]methyl}-4,6-diazaspiro[2.4]hept-4-en-7-one] | 91% | 135 nM | 6610 nM | 63.1 nM | 646 nM | 83.2 nM | 170 nM
12 | Cc1cc(-c2nn(C)c3ccccc23)ccc1C1=NC2(CC2)C(=O)N1CC1CN(C(=O)C2(C)CC2)C1 [compound 600, 6-({1-[(1-Methylcyclopropyl)carbonyl]azetidin-3-yl}methyl)-5-[2-methyl-4-(1-methyl-1H-indazol-3-yl)phenyl]-4,6-diazaspiro[2.4]hept-4-en-7-one] | 98% | 417 nM | > 10000 nM | ~603 nM | 2240 nM | 501 nM | 1200 nM
13 | Cn1nc(Cl)c2ccc(-c3ccc(C4=NC5(CC5)C(=O)N4CC4CN(C(=O)C5CC5)C4)c(F)c3)cc21 [compound 606, 5-[4-(3-Chloro-1-methyl-1H-indazol-6-yl)-2-fluorophenyl]-6-{[1-(cyclopropylcarbonyl)azetidin-3-yl]methyl}-4,6-diazaspiro[2.4]hept-4-en-7-one] | 97% | 209 nM | > 10000 nM | 1230 nM | 2400 nM | 1120 nM | 1450 nM
14 | Cn1nc(Cl)c2cc(-c3ccc(C4=NC5(CC5)C(=O)N4CC4CN(C(=O)C5CC5)C4)c(F)c3)ccc21 [compound 607, 5-[4-(3-Chloro-1-methyl-1H-indazol-5-yl)-2-fluorophenyl]-6-{[1-(cyclopropylcarbonyl)azetidin-3-yl]methyl}-4,6-diazaspiro[2.4]hept-4-en-7-one] | 102% | 158 nM | > 10000 nM | 646 nM | 1100 nM | 178 nM | 537 nM
